Drawing on ChEMBL document CHEMBL1152100, “Enzymatic synthesis of sialyl Lex and derivatives based on a recombinant fucosyltransferase” (Bioorg Med Chem Lett, 1991), this text covers Relative activity for 19 compounds.

The target of the first assay is Alpha-(1,3)-fucosyltransferase 10 (Homo sapiens) (UniProt Q6P4F1). The assay can be described thus: (§1) Acceptor substrate specificity toward Fucosyltransferase for the galactosides of GlcNAc with beta 1,3 or beta 1,4-linkages.
In turn, LACTOSE, ANHYDROUS had a Relative activity of 120.

A further assay has as its target T1, Alpha-(1,3)-fucosyltransferase 10 (Homo sapiens) (UniProt Q6P4F1).
T1 sequence (whole entry): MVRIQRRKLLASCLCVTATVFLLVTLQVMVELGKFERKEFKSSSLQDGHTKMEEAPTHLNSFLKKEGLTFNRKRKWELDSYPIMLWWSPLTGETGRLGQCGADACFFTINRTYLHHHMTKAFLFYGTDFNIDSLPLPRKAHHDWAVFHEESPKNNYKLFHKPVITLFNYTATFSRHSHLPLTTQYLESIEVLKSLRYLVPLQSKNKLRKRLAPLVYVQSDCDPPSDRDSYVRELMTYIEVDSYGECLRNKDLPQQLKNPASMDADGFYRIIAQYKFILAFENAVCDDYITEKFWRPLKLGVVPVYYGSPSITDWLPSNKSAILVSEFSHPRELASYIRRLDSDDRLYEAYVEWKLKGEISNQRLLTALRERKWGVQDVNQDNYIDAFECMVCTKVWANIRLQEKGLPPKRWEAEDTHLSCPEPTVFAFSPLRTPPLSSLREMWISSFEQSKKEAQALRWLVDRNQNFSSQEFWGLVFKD
The description is as §1.
`CC(=O)N[C@@H]1[C@H](O[C@H]2[C@H](O)[C@H](NC(C)=O)C(O)O[C@H]2CO)O[C@@H](CO)[C@@H](O)[C@@H]1O` (stereo not given in full) yielded a Relative activity of 23.

On to `CC(=O)N[C@H]1C(O)O[C@H](CO)[C@@H](O)[C@@H]1O` (stereo not given in full), for which the Relative activity is 3.

Consider `CC(=O)N[C@@H]1[C@H](OC[C@@H]2O[C@@H](O[C@H]3[C@H](O)[C@H](O)C(O)O[C@H]3CO)[C@@H](O)[C@@H](O)[C@H]2O)O[C@@H](CO)[C@@H](O)[C@@H]1O` (stereo not given in full), for which the Relative activity is 13. On the same count and under the same terms, to `CC(=O)N[C@H]1[C@@H](O[C@@H]2O[C@@H](CO)[C@H](O)[C@H](O)[C@@H]2O)[C@H](O)[C@H](CO)O[C@H]1O` belongs 580; to `C[C@@H]1O[C@@H](O[C@@H]2[C@H](O[C@H]3[C@H](O)[C@H](O)[C@@H](O)O[C@H]3CO)O[C@@H](CO)[C@H](O)[C@@H]2O)[C@@H](O)[C@@H](O)[C@@H]1O`, 250. The same measure, in the same setting: to `OC[C@@H]1OC(O)[C@@H](O)[C@H](O)[C@H]1O` (stereo not given in full) belongs 3; to `OC[C@H]1OC(O)[C@H](O)[C@@H](O)[C@@H]1O` (stereo not given in full), 5; to `OC[C@H]1OC=C[C@@H](O)[C@H]1O`, 2. Consider `CC(=O)N[C@H]1C(O)O[C@H](CO)[C@H](O)[C@@H]1O` (stereo not given in full), for which the Relative activity is 4. `OC[C@@H]1O[C@@H](O[C@H]2[C@H](O)[C@H](O)[C@H](O)S[C@H]2CO)[C@@H](O)[C@@H](O)[C@H]1O` came in with a Relative activity of 310. The same measure, in the same setting: to `CC(=O)N[C@H]1[C@H]([C@H](O)[C@H](O)CO)O[C@@](O[C@@H]2[C@H](O)[C@H](O[C@H]3[C@H](O)[C@H](NC(C)=O)C(O)O[C@H]3CO)O[C@@H](CO)[C@@H]2O)(C(=O)O)C[C@H]1O` (stereo not given in full) belongs 60. The same measure, in the same setting: the figure for `OC[C@H]1NC[C@H](O)[C@@H](O)[C@@H]1O` is 5; for `O=C[C@H](O)[C@@H](O)[C@@H](O)[C@H](O)CO` it is 6. Same read-out and setting: to `OC[C@H]1S[C@H](O)[C@H](O)[C@@H](O)[C@@H]1O` belongs 7. `CC(=O)N[C@@H]1[C@@H](O)[C@H](O[C@@H]2O[C@H](CO)[C@H](O)[C@H](O)[C@H]2O)[C@@H](CO)O[C@H]1O` showed a Relative activity of 27. On the same count and under the same terms, to `OC[C@H]1OC=C[C@@H](O)[C@@H]1O` belongs 7; to `OC[C@@H]1OC(O)[C@@H](O)[C@H](O)[C@@H]1O` (stereo not given in full), 7; to `C=CCO[C@@H]1O[C@@H](CO)[C@@H](O)[C@H](O)[C@@H]1O`, less than 1.

The target of another assay is T1, Alpha-(1,3)-fucosyltransferase 10 (Homo sapiens). The assay can be described thus: Compound was evaluated for acceptor substrate specificity toward Fucosyltransferase for the galactosides of GlcNAc with beta 1,3 or beta 1,4-linkages when applied 2 uM of GDP-Fuc consumed per hr.
Consider `CC(=O)N[C@@H]1[C@@H](O)[C@H](O[C@@H]2O[C@H](CO)[C@H](O)[C@H](O)[C@H]2O)[C@@H](CO)O[C@H]1O`, for which the Relative activity was 100.
